Reference: patent US5214174A, “Platinum complex and anti-tumor agent comprising said complex as active ingredient” (Tsumura & Co., priority 1989, dated 1993)

What was measured:
[1] = system: MCF7 human mammary cancer cells; experiment: Inhibition of propagation of cancer cells, MTT method, 48 hours; assay type: cell-based; details: 37° C.
Description: (§1) L1210 mouse leukemia cells, P388 mouse leukemia cells, Hela human uterine neck cancer cells, T24 human bladder cancer cells or MCF7 human mammary cancer cells were suspended in Eagle medium (Hela and T24) containing 10% bovine fetal serum, PRMI1640 medium (L1210 and MCF7) or PRM11740 medium (P388) mixed with 5×10^-5 M mercaptoethanol, and the cells were seeded on a 96-well plate at an inoculum size of 3×10^3 cells per hole. A compound obtained in an example described below or cysplatin (CDDP) was diluted with physiological saline solution and added to the medium at various concentrations. Culturing was conducted at 37° C. for 48 hours in a carbon dioxide incubator, and the propagation of cells was determined by the MTT [3-(4,5-dimethylthiazol-2-yl-)-2,5-diphenyl tetrazolium bromide] method (J. Immunol. Method, 65, 55, 1983). The absorbance A after 48 hours of culturing at each concentration, the absorbance B after 48 hours of culturing in the control, and the absorbance C before addition of the compound obtained in the example were determined, and the propagation reaction rate D of each concentration was calculated from the following formula: [formula] The concentration IC50, unit: μg/ml) of the compound obtained in the example giving the value corresponding to 50% of the value of the control was determined from the curve showing the relationship between the concentration of the compound obtained in the example and the propagation reaction rate.

[2] = system: T24 human bladder cancer cells; experiment: as above; assay type: cell-based; details: 37° C.
Description: as §1

[3] = system: Hela human uterine neck cancer cells; experiment: as above; assay type: cell-based; details: 37° C.
Description: as §1

[4] = system: L1210 mouse leukemia cells; experiment: as above; assay type: cell-based; details: 37° C.
Description: as §1

[5] = system: P388 mouse leukemia cells; experiment: as above; assay type: cell-based; details: 37° C.
Description: as §1

[6] = system: Mouse leukemia L1210 cells; experiment: Anti-tumor effect (life prolongation) in mice transplanted with L1210 cells; assay type: in vivo, mouse (female BDF1); details: abdominal cavity; for T/C (life prolongation ratio) / ratio of the number of surviving mice to the number of tested mice / Average Survival Day Number / ILS30 (dose giving a 30% life-prolonging effect over the control group) / ILSmax (dose giving a highest life-prolonging effect) / TR (cure ratio; ILSmax/ILS30): once a day for 3 days; for ratio of the number of surviving mice to the number of tested mice: 30th day; for Average Survival Day Number: 30 days
Description: Mouse leukemia L1210 cells (1×10^5) were transplanted into the abdominal cavity of a 6-weeks-old female BDF1 mouse. Then, continuously for 3 days from the next day, a compound of a compound obtained in an example described below or CDDP was administered to the abdominal cavity once a day. In the control group, physiological saline solution alone was similarly administered.
The anti-tumor effect was evaluated based on the life prolongation ratio (T/C value) determined from the average survival day numbers of the group of the compound obtained in the example and the control group after 30 days from the transplantation of L1210. On the 30th day from the transplantation, the experiment was concluded. In the case of mice surviving for more than 30 days, the survival day number was regarded as 30. [formula] The average survival day number at each dose, the T/C value (%) and the ratio of the number of surviving mice upon termination of the experiment to the number of tested mice are shown in Table 2. The ILS30 value (the dose giving a 30% life-prolonging effect over the control group), the ILSmax value (the dose giving a highest life-prolonging effect), the TR value (cure ratio; ILSmax /ILS30) and the CR value (the ratio of the number of mice completely cured at the ILSmax value and the number of mice showing no propagation of a tumor after 30 days from the transplantation to the number of tested mice) are shown in Table 3.
Note, 1 indicates the ratio of the number of surviving mice to the number of tested mice.

[7] = Acute toxicity test; assay type: in vivo, mouse (male, ICR family); details: administration into the abdominal cavity, male ICR mice

Compound	IC50 [1]	IC50 [2]	IC50 [3]	IC50 [4]	IC50 [5]	ILS30 (dose giving a 30% life-prolonging effect over the control group) [6]	ILSmax (dose giving a highest life-prolonging effect) [6]	TR (cure ratio; ILSmax/ILS30) [6]	CR (ratio of mice completely cured at ILSmax and showing no propagation of a tumor after 30 days to tested mice) [6]	further results
1:1 mixture of oxalate-(1R,2R)-diaminocyclooctane platinum (II) and oxalate-(1S,2S)-diaminocyclooctane platinum (II) [Example 1]	0.41 µg/mL	1.43 µg/mL	0.29 µg/mL	0.03 µg/mL	0.06 µg/mL	0.06 mg/kg	10.0 mg/kg	167	6/6	T/C (life prolongation ratio) ([6]; 0.3 mg/kg): > 183%; ratio of the number of surviving mice to the number of tested mice ([6]; 0.3 mg/kg): 1/6; Average Survival Day Number ([6]; 0.3 mg/kg): > 16.8 days; T/C (life prolongation ratio) ([6]; 1.0 mg/kg): > 214%; ratio of the number of surviving mice to the number of tested mice ([6]; 1.0 mg/kg): 1/6; Average Survival Day Number ([6]; 1.0 mg/kg): > 19.7 days; T/C (life prolongation ratio) ([6]; 3.0 mg/kg): > 220%; ratio of the number of surviving mice to the number of tested mice ([6]; 3.0 mg/kg): 2/6; Average Survival Day Number ([6]; 3.0 mg/kg): > 20.3 days; T/C (life prolongation ratio) ([6]; 10.0 mg/kg): > 326%; ratio of the number of surviving mice to the number of tested mice ([6]; 10.0 mg/kg): 6/6; Average Survival Day Number ([6]; 10.0 mg/kg): > 30.0 days
[NH2][Pt]([NH2])([Cl])[Cl] [CDDP, cisplatin, reference compound]	3.28 µg/mL	1.51 µg/mL	1.42 µg/mL	0.46 µg/mL	0.09 µg/mL	1.5 mg/kg	6.0 mg/kg	4	3/6	LD50 [7]: 14.6 mg/kg
